We go through 26 compounds from patent US11427553B2, “Dihydrooxadiazinones” (Bayer Aktiengesellschaft, priority 2017, dated 2022).

The test system of this experiment is HeLa cells. The experiment can be described thus: Assay 1 cell proliferation measurement (CTG, 72 h), HeLa. It counts as cell-based, human. The note with it: Homo sapiens, HeLa; Assay 1, 72 h, Cell Titer Glo; read-out: HeLa IC50 [nM] (Cervical cancer). How it is done: Cell Proliferation Measurement
The antiproliferative activity of the compounds of the general formula (I) was examined in vitro in human cancer cells. For this purpose, the appropriate number of cells (Hela: 800; SK-MEL-3: 1000; A549: 800) were plated in 384-well plates with appropriate growth medium ((A549: DMEM/Ham's F12 (Biochrom; #FG 4815 with stabile Glutamine), FCS 10% final (Biochrom; #S 0415); Hela: DMEM/Ham's F12 (Biochrom; #FG 4815 with stabile Glutamine), FCS 10% final (Biochrom; #S 0415); SK-MEL-3: McCoy's 5A (Biochrom; #F 1015), FCS 10% final (Biochrom; #S 0415), L-Alanyl-L-Glutamine final: 2 mM, (Biochrom; #K 0302)) and incubated at 37° C. overnight. After 24 h, cells on one plate (0 h plate) were treated with 30 μl/cavity of CTG solution (Promega Cell Titer Glo (catalogue #G755B and G756B)) and incubated at room temperature for 10 min, and luminescence was measured by means of a VICTOR V (Perkin Elmer), in order to determine cell viability on commencement of treatment. The cells on the test plate were treated with the compounds of the general formula (I) as and incubated at 37° C. for 72 h. The compounds were added to the cells by means of an HP D300 digital dispenser in a 10-step 2.5-fold dilution series generally starting at a maximum final drug concentration of 100 nM. As control, the cells were treated with vehicle (DMSO at 0.3% final concentration). After 72 h, the cells were treated with 30 μl/cavity of CTG solution (Promega Cell Titer Glo (catalogue #G755B and G756B)) and incubated at room temperature for 10 min. and luminescence was measured by means of a VICTOR V (Perkin Elmer), in order to determine cell viability at the end of treatment. The percentage effect on cell growth and the IC50 derived therefrom were determined for each test substance using the values from the 0 h plate […] and the DMSO control […]. The IC50 values were calculated using a 4-parameter fit.
In the case of `CC(C)C[C@H](CO)Nc1ccc(C2=NNC(=O)OC2)cc1C(F)(F)F` [Example 293, 5-[4-{[(2R)-1-hydroxy-4-methylpentan-2-yl]amino}-3-(trifluoromethyl)phenyl]-3,6-dihydro-2H-1,3,4-oxadiazin-2-one], the IC50 is 43 nM.
Then `NC(=O)C1CN(c2ccc(C3=NNC(=O)OC3)cc2C(F)(F)F)C1` [Example 287, 1-[4-(2-oxo-3,6-dihydro-2H-1,3,4-oxadiazin-5-yl)-2-(trifluoromethyl)phenyl]azetidine-3-carboxamide], with 23 nM.
Then `CC1CC(Nc2ccc(C3=NNC(=O)OC3)cc2C(F)(F)F)CCN1` (centres unmarked) [Example 311, 5-{4-[(2-methylpiperidin-4-yl)amino]-3-(trifluoromethyl)phenyl}-3,6-dihydro-2H-1,3,4-oxadiazin-2-one], with greater than 100 nM; and `CN1CC(CNc2ccc(C3=NNC(=O)OC3)cc2C(F)(F)F)CC1=O` (centres unmarked) [Example 305, 5-[4-{[(1-methyl-5-oxopyrrolidin-3-yl)methyl]amino}-3-(trifluoromethyl)phenyl]-3,6-dihydro-2H-1,3,4-oxadiazin-2-one], with greater than 100 nM.
To `CN(CC(C)(C)O)c1ccc(C2=NNC(=O)OC2)cc1C(F)(F)F` [Example 283, 5-{4-[(2-hydroxy-2-methylpropyl)(methyl)amino]-3-(trifluoromethyl)phenyl}-3,6-dihydro-2H-1,3,4-oxadiazin-2-one] belongs 13 nM.
On to `CN1CCCC1CCNc1ccc(C2=NNC(=O)OC2)cc1C(F)(F)F` (centres unmarked) [Example 318, 5-[4-{[2-(1-methylpyrrolidin-2-yl)ethyl]amino}-3-(trifluoromethyl)phenyl]-3,6-dihydro-2H-1,3,4-oxadiazin-2-one], for which the concentration for half-maximal inhibition (IC50) is greater than 100 nM.
Then `O=C1NN=C(c2ccc(NCc3cncnc3)c(C(F)(F)F)c2)CO1` [Example 299, 5-[4-{[(pyrimidin-5-yl)methyl]amino}-3-(trifluoromethyl)phenyl]-3,6-dihydro-2H-1,3,4-oxadiazin-2-one], with 69 nM; and `CN(C)C1CCN(c2ccc(C3=NNC(=O)OC3)cc2C(F)(F)F)C1` (centres unmarked) [Example 310, 5-{4-[3-(dimethylamino)pyrrolidin-1-yl]-3-(trifluoromethyl)phenyl}-3,6-dihydro-2H-1,3,4-oxadiazin-2-one], with greater than 100 nM.
For the compound `C[C@@H](O)[C@@H](CO)Nc1ccc(C2=NNC(=O)OC2)cc1C(F)(F)F` [Example 292, 5-[4-{[(2R,3R)-1,3-dihydroxybutan-2-yl]amino}-3-(trifluoromethyl)phenyl]-3,6-dihydro-2H-1,3,4-oxadiazin-2-one], the IC50 is 43 nM.
To `CNC(=O)CCNc1ccc(C2=NNC(=O)OC2)cc1C(F)(F)F` [Example 303, N-methyl-N^3-[4-(2-oxo-3,6-dihydro-2H-1,3,4-oxadiazin-5-yl)-2-(trifluoromethyl)phenyl]-beta-alaninamide] belongs greater than 100 nM.
Take `Cn1ccc(CNc2ccc(C3=NNC(=O)OC3)cc2C(F)(F)F)n1` [Example 286, 5-[4-{[(1-methyl-1H-pyrazol-3-yl)methyl]amino}-3-(trifluoromethyl)phenyl]-3,6-dihydro-2H-1,3,4-oxadiazin-2-one]: the IC50 came to 23 nM.
Turning to `CN(C)C(=O)CNc1ccc(C2=NNC(=O)OC2)cc1C(F)(F)F` [Example 307, N,N-dimethyl-N^2-[4-(2-oxo-3,6-dihydro-2H-1,3,4-oxadiazin-5-yl)-2-(trifluoromethyl)phenyl]glycinamide], the IC50 was greater than 100 nM.
To `O=C1NN=C(c2ccc(N3CCC4(CCOC4)C3)c(C(F)(F)F)c2)CO1` (centres unmarked) [Example 284, 5-[4-(2-oxa-7-azaspiro[4.4]nonan-7-yl)-3-(trifluoromethyl)phenyl]-3,6-dihydro-2H-1,3,4-oxadiazin-2-one] belongs 14 nM; to `Cn1cc(CNc2ccc(C3=NNC(=O)OC3)cc2C(F)(F)F)cn1` [Example 300, 5-[4-{[(1-methyl-1H-pyrazol-4-yl)methyl]amino}-3-(trifluoromethyl)phenyl]-3,6-dihydro-2H-1,3,4-oxadiazin-2-one], 90 nM.
Then `O=C1NN=C(c2ccc(NCCc3cnc[nH]3)c(C(F)(F)F)c2)CO1` [Example 291, 5-[4-{[2-(1H-imidazol-5-yl)ethyl]amino}-3-(trifluoromethyl)phenyl]-3,6-dihydro-2H-1,3,4-oxadiazin-2-one], with 35 nM; and `O=C1NN=C(c2ccc(NCc3cccnc3)c(C(F)(F)F)c2)CO1` [Example 288, 5-[4-{[(pyridin-3-yl)methyl]amino}-3-(trifluoromethyl)phenyl]-3,6-dihydro-2H-1,3,4-oxadiazin-2-one], with 26 nM; and `O=C1CCC(CNc2ccc(C3=NNC(=O)OC3)cc2C(F)(F)F)N1` (centres unmarked) [Example 290, 5-[4-{[(5-oxopyrrolidin-2-yl)methyl]amino}-3-(trifluoromethyl)phenyl]-3,6-dihydro-2H-1,3,4-oxadiazin-2-one], with 32 nM.
For the compound `CCCC(CO)Nc1ccc(C2=NNC(=O)OC2)cc1C(F)(F)F` (centres unmarked) [Example 285, 5-{4-[(1-hydroxypentan-2-yl)amino]-3-(trifluoromethyl)phenyl}-3,6-dihydro-2H-1,3,4-oxadiazin-2-one], the IC50 amounted to 14 nM.
On to `CN(c1ccc(C2=NNC(=O)OC2)cc1C(F)(F)F)C1CCC(O)CC1` (centres unmarked) [Example 289, 5-{4-[(4-hydroxycyclohexyl)(methyl)amino]-3-(trifluoromethyl)phenyl}-3,6-dihydro-2H-1,3,4-oxadiazin-2-one], for which the IC50 was 26 nM.
To `CCN(CCC#N)c1ccc(C2=NNC(=O)OC2)cc1C(F)(F)F` [Example 314, 3-{ethyl[4-(2-oxo-3,6-dihydro-2H-1,3,4-oxadiazin-5-yl)-2-(trifluoromethyl)phenyl]amino}propanenitrile] belongs greater than 100 nM; to `CC(=O)NCCNc1ccc(C2=NNC(=O)OC2)cc1C(F)(F)F` [Example 316, N-{2-[4-(2-oxo-3,6-dihydro-2H-1,3,4-oxadiazin-5-yl)-2-(trifluoromethyl)anilino]ethyl}acetamide], greater than 100 nM.
To `O=C1NN=C(c2ccc(NCc3cccnn3)c(C(F)(F)F)c2)CO1` [Example 308, 5-[4-{[(pyridazin-3-yl)methyl]amino}-3-(trifluoromethyl)phenyl]-3,6-dihydro-2H-1,3,4-oxadiazin-2-one] belongs greater than 100 nM.
Take `O=C1NN=C(c2ccc(NCCCn3ccnc3)c(C(F)(F)F)c2)CO1` [Example 282, 5-[4-{[3-(1H-imidazol-1-yl)propyl]amino}-3-(trifluoromethyl)phenyl]-3,6-dihydro-2H-1,3,4-oxadiazin-2-one]: the IC50 amounted to 13 nM.
Then `O=C1NN=C(c2ccc(NCCN3CCCCC3)c(C(F)(F)F)c2)CO1` [Example 317, 5-[4-{[2-(piperidin-1-yl)ethyl]amino}-3-(trifluoromethyl)phenyl]-3,6-dihydro-2H-1,3,4-oxadiazin-2-one], with greater than 100 nM; and `CCN1CCCC1CNc1ccc(C2=NNC(=O)OC2)cc1C(F)(F)F` (centres unmarked) [Example 315, 5-[4-{[(1-ethylpyrrolidin-2-yl)methyl]amino}-3-(trifluoromethyl)phenyl]-3,6-dihydro-2H-1,3,4-oxadiazin-2-one], with greater than 100 nM.
As to `O=C1NN=C(c2ccc(NCCCn3cnnc3)c(C(F)(F)F)c2)CO1` [Example 312, 5-[4-{[3-(4H-1,2,4-triazol-4-yl)propyl]amino}-3-(trifluoromethyl)phenyl]-3,6-dihydro-2H-1,3,4-oxadiazin-2-one], the IC50 is greater than 100 nM.

What is called IC50 is the concentration needed to halve the response being measured.
